Measurements taken from ChEMBL document CHEMBL1131712, “Short synthesis and anti-rhinoviral activity of imidazo[1,2-a]pyridines: the effect of acyl groups at 3-position” (Bioorg Med Chem Lett, 1999).
In brackets after ≈: the same amount, converted by molar mass.

How the values were obtained:
[1] = Cellular toxic concentration against Human rhinovirus-14 (HRV-14) using cytopathic effect assay(CPE/XTT); assay type: organism-based, Enterovirus; details: read-out: TC50 (the source's name)
rhinovirus B14 = experiment: Inhibitory concentration required against Human rhinovirus-14 (HRV-14) using plaque reduction assay; assay type: functional, organism-based, Enterovirus; details: Rhinovirus B

SMILES | CC50 [1] | IC50 (rhinovirus B14)
CNC(=O)/C=C(\c1ccccc1)c1ccc2nc(N)c(C(=O)c3ccc(F)cc3)n2c1 | 3.97 µg/mL (≈ 9.58 µM) | 0.37 µg/mL (≈ 0.893 µM)
CNC(=O)/C=C(\c1ccccc1)c1ccc2nc(N)c(C(=O)c3ccccc3)n2c1 | 2.95 µg/mL (≈ 7.44 µM) | 0.24 µg/mL (≈ 0.605 µM)
CNC(=O)/C=C(\c1ccccc1)c1ccc2nc(N)c(C(C)=O)n2c1 | 22.8 µg/mL (≈ 68.2 µM) | 2.48 µg/mL (≈ 7.42 µM)
CNC(=O)/C=C(\c1ccccc1)c1ccc2nc(N)c(C(=O)C(C)(C)C)n2c1 | > 10 µg/mL | 0.17 µg/mL (≈ 0.452 µM)
CC(C)S(=O)(=O)n1c(N)nc2ccc(/C(=N/O)c3ccccc3)cc21 [ENVIROXIME] |  | 0.045 µg/mL (≈ 0.126 µM)
